Assay results published in US6995159B2, “5-HT receptor ligands and uses thereof” (Pfizer Inc., priority 2001, dated 2006).

Key:
[1] = molecular target: T1, human 5HT2c receptor (Homo sapiens, UniProt P28335); experiment: 5HT2c binding procedure (competition binding against 3H-5HT); conditions: Swiss 3T3 mouse cells transfected with human 5HT2c receptor
T1 construct: expressed in transfected cells; host or cells: Swiss 3T3 mouse cells
T1 sequence (P28335 33-458): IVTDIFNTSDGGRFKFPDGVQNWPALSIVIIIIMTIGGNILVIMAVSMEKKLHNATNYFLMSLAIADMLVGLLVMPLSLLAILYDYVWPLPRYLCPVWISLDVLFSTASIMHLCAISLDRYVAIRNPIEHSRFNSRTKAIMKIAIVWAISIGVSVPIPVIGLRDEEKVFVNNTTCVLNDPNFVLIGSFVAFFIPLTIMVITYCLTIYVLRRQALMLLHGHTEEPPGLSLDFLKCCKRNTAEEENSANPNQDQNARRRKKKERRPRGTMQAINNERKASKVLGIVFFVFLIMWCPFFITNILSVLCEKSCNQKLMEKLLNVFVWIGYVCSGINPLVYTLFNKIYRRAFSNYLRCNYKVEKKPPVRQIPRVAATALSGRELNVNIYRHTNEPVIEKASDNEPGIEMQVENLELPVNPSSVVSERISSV
Protocol: Affinity of compounds at the serotonin 5HT2c binding site is determined by competition binding in Swiss 3T3 mouse cells (available from the American Type Culture Collection (ATCC), Manassas, Va.) transfected with the human 5HT2c receptor against 3H-5HT. The method is adapted from Roth et al., J. of Pharm. And Exp. Therap., 260(3), 1362–1365 (1992). Cells are grown in DMEM high glucose medium, harvested, homogenized, centrifuged, and resuspended in 50 mM Tris-HCL. They are incubated at 37° C. for 15 minutes, centrifuged, and then resuspended into assay buffer (50 mM Tris-HCl, 4 mM CaCl2, 0.1% ascorbic acid, and 100 μM pargyline at pH 7.7) at 100 volumes per gram. Assay tubes contain 25 μL of 10 nM ^3H-5HT (1 nM final conc.), and 25 μl of vehicle (assay buffer), blank (10 μM mianserin), or test compound (10X final volume). 200 μl of tissue homogenate is added to each tube, vortexed, and incubated for 30 minutes at 37° C. Samples are then rapidly filtered under vacuum with a Skatron™ cell harvester (available from Molecular Devices Corporation, Sunnyvale, Calif.) using GF/B filters presoaked in 0.5% polyethyleneimine (PEI), and washed with 2×5 mL cold 50 mM Tris-HCl. Filter mats are removed and counted in a Wallac Betaplate counter (available from PerkinElmer Life Sciences, Gaithersburg, Md.). Percent inhibition of specific binding by test compounds is used to calculate the Ki, or extrapolate concentration of test compound necessary to inhibit one-half of the total specific binding for each compound.

[2] = molecular target: T2, rat 5HT2A receptor (Rattus norvegicus, UniProt P14842); experiment: 5HT2A binding procedure (competition binding using 125I-DOI); conditions: NIH 3T3 mouse cells transfected with rat 5HT2A receptor
T2 construct: expressed in transfected cells; host or cells: NIH 3T3 mouse cells
T2 sequence (P14842 whole entry): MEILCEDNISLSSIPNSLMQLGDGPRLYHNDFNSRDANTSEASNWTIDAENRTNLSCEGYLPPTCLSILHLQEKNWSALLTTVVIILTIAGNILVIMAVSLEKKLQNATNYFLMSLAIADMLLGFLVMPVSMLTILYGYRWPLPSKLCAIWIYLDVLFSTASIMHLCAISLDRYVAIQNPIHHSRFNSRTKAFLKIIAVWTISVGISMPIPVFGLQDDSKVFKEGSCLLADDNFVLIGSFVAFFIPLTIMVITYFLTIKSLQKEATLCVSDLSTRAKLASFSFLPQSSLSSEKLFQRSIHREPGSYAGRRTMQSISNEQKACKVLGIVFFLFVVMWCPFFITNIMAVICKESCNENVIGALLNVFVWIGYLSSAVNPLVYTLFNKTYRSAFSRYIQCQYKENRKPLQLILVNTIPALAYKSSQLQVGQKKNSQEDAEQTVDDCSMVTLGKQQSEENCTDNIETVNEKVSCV
Protocol: Affinity of compounds at the serotonin 5HT2A binding site is determined by competition binding in NIH 3T3 mouse cells transfected with the rat 5HT2A receptor using 1251-DOI. The method was adapted from Leonhardt et al., Molecular Pharmacology, 42, 328–335 (1992). Frozen cell paste is homgenized in 50 mM tris-HCl buffer pH 7.4 containing 2 mM MgCl2 using a Polytron and centrifuged at 45000×g for ten minutes. The resulting pellet is resuspended in fresh ice-cold 50 mM tris-HCl buffer pH 7.4 containing 2 mM MgCl2 using a Polytron™ and centrifuged again at 45000×g for ten minutes. The final pellet is resuspended in 50 mM tris-HCl buffer pH 7.4 containing 2 mM MgCl2 at a concentration of 5 mg/mL. Wells in a 96 well plate contain 25 μL of 0.7 nM 1251-DOI (70 pM final conc.), and 25 μL of vehicle (assay buffer), blank (10 μM cinanserin), or test compound (10× final volume). […] Filter mats are removed, dried and counted in a Wallac Betaplate counter. Concentration-response curves of the % inhibition of specific binding and log concentration by test compounds was used to determine the IC50 for each compound and the Ki value calculated based on the Cheng-Prusof equation (Ki=IC50/(1+(L/Kd)), where L is the concentration of the radioligand used in the binding assay and the Kd is based on previous saturation studies with the radioligand.

[3] = tested on: 5-HT2c receptor; experiment: Functional assay (FLIPR calcium, Fluo 4-AM) in 5-HT2c expressed cells; format: cell-based; conditions: at 10 μM; 5-HT2c expressed NIH 3T3 cells
Protocol: (§1) Swiss 3T3 cells expressing r-5HT2C, r-5HT2A, h-5HT2C or h-5HT2A receptors are seeded at a density of 12,500 cells/well in 384 well black/clear collagen-coated plates. Forty eight (48) hrs later the cells are loaded with the calcium sensitive dye, Fluo 4-AM (4 μM dissolved in DMSO containing pluronic acid) in serum free DMEM in the presence of probenicid (2.5 mM) for 75 minutes at 37° C. in a CO2 incubator. Unincorporated dye is removed by washing 3 times with a HEPES-buffered saline containing probenicid (2.5 mM) using a Skatron™ cell washer (final volume 30 μL).
(§2) Plates are added to a fluorometric imaging plate reader (FLIPR 384 available from Molecular Devices Corporation) individually and fluorescence measurements are taken every 2 seconds over an 85 seconds period. Test compound additions are made simultaneously to all 384 wells after 20 seconds of baseline recording. Concentration-response curves are generated using Graphpad Prism™ (available from GraphPad Software, Inc., San Diego, Calif.) and agonist efficacies are generated as % of the response to 10 μM 5-HT (considered as 100%). Estimation of antagonist potencies (functional Kis) are generated by measuring inhibition of the test compound response to 5-HT (10 nM for 5-HT2C and 50 nM for 5-HT2A) and applying the Cheng Prusoff equation.
The functional data for the compounds listed in the Examples above utilizing the 5-HT2c expressed NIH 3T3 cells is summarized below.

[4] = tested on: 5-HT2a receptor; experiment: Functional assay (FLIPR calcium, Fluo 4-AM) in 5-HT2a expressed cells; format: cell-based; conditions: 5-HT2a expressed NIH 3T3 cells
Protocol: as §1, §2
The functional data for the compounds listed in the Examples above utilizing the 5-HT2a expressed NIH 3T3 cells is summarized below.

| Structure (SMILES) | Ki [1] [nM] | 5HT2a binding activity [2] | 5-HT2c functional activity [3] | 5-HT2a functional activity ([4]; at 10 μM) | functional mode at 5-HT2a (partial agonist / full antagonist) [4] |
| --- | --- | --- | --- | --- | --- |
| C[C@@H]1CN(c2ccnc(OCc3cccc(Cl)c3)n2)C[C@H](C)N1 [Example 1-NN, 2-(3-Chloro-benzyloxy)-4-[(3R,5S)-dimethyl-piperazin-1-yl]-pyrimidine] | > 500 | no binding activity | no 5-HT2c functional activity | no functional activity | – |
| Cl.c1ccc(COc2nccc(N3CCNCC3)n2)nc1 [Example 5-B, 4-Piperazin-1-yl-2-(pyridin-2-ylmethoxy)-pyrimidine, hydrochloride] | > 500 | – | – | – | full antagonists |
| Cc1cccc(COc2nccc(N3CCNCC3)n2)n1.Cl [Example 5-C, 2-(6-Methyl-pyridin-2-ylmethoxy)-4-piperazin-1-yl-pyrimidine, hydrochloride] | > 500 | – | – | – | full antagonists |
